Measured values taken from patent US20060160197A1 (priority 2004, published 2006).

Experiments:
Assay type in all cases: physicochemical
[1] = Example 8 reactive solvent extraction, 90% Alamine 336/10% 1-octanol, 25° C.; conditions: pH 2 to 3
Protocol: (§1) A variety of analytical methods can be employed to analyze the reactants and products produced using the present methods include HPLC, GC, ion selective electrodes, MS, NMR, etc. HPLC was used to measure glycolic acid and various related products. Briefly, samples are diluted with water (as needed to be within HPLC detection range) and mixed 1:1 with 0.2 M n-propanol in water (HPLC internal standard). HPLC Analytical Method: (BioRad HPX 87H ion exclusion column (BioRad, Hercules, Calif.), 300 mm×7.8 mm; 0.01 N H2SO4 mobile phase; 1.0 mL/min flow at 50° C.; 10 μL injection volume; RI detector and UV 210 nm, 20 min analysis time). HPLC Equipment: (Waters 2695 ‘Alliance’ Separations Module, 2410 Refractive Index Detector, 2487 Dual λ Absorbance Detector and Empower Pro Software (Waters Corp, Milford, Mass.).
Solvent Extraction Using Approximately 90% C8-C10 Trialkylamine in Combination with 10% 1-Octanol at 25° C.
(§2) Into a 4-mL glass reactor equipped with magnetic stir bar was placed 1 mL of a mixed solvent containing 90% (volume/volume) Alamine® 336 (Cognis), 10% (volume/volume) 1-octanol. The pH of an aqueous solution of ammonium glycolate (5 wt % to 40 wt %) was adjusted to pH 2 to 3 with concentrated sulfuric acid, then 1 mL of the resulting aqueous solution was added to the reactor. The resulting mixture was stirred for 30 minutes at 25° C.

[2] = Example 1 reactive solvent extraction, 70% Alamine 336/10% MIBK/20% kerosene, 25° C.; conditions: pH 2 to 3
Text: A water-immiscible organic solvent (i.e., “first phase”) is subsequently mixed with the second phase, and forms a two-phase system (a water immiscible organic phase and an aqueous phase). The glycolic acid in the second phase forms a complex with the tertiary trialkyl amine in the first phase.
as §1
Solvent Extraction Using Approximately 70% C8-C10 Trialkylamine in Combination with 10% Methyl Isobutyl Ketone and 20% Kerosene at 25° C.
Into a 4-mL glass reactor equipped with magnetic stir bar was placed 1 mL of a mixed solvent containing 70% (volume/volume) of trialkyl amine (Alamine® 336; Cognis Corp., Cincinnati, Ohio), 10% (volume/volume) methyl isobutyl ketone (MIBK) and 20% (volume/volume) kerosene. The pH of an aqueous solution of ammonium glycolate (5 wt % to 40 wt %) was adjusted to about pH 2 to 3 with concentrated sulfuric acid (H2SO4), then 1 mL of the resulting aqueous solution was added to the reactor. The resulting mixture was stirred for 30 minutes at 25° C.

[3] = Example 17 back extraction with aqueous glycolic acid from loaded solvent (70% Alamine 336/10% MIBK/20% kerosene), 120° C.; conditions: 40 psig nitrogen
Protocol: as §1
Following the procedures in Example 1, into a 1-L cylindrical glass vessel on an extraction mixer (mix by rotating back and forth vertically) was placed 100 mL of a mixed solvent containing 70% (volume/volume) Alamine® 336 (Cognis), 10% (volume/volume) methyl isobutyl ketone (MIBK) and 20% (volume/volume) kerosene. The pH of an aqueous solution of ammonium glycolate (10 wt % to 50 wt %) was adjusted to approximately pH 2 to 3 with concentrated sulfuric acid, then 100 mL of the resulting aqueous solution was added to the extraction mixer. […]

[4] = Example 4 reactive solvent extraction, 90% Alamine 336/10% MIBK, 25° C.; conditions: pH 2 to 3
Protocol: as §1
Solvent Extraction Using Approximately 90% C8-C10 Trialkylamine in Combination with 10% Methyl Isobutyl Ketone at 25° C.
as §2, with “(Cognis) and” for “(Cognis),”, “methyl isobutyl ketone (MIBK).” for “1-octanol.”

[5] = Example 21 back extraction with aqueous glycolic acid from loaded solvent (70% trialkylamine/30% toluene), 120° C.; conditions: 70% C8-C10 trialkylamine/30% toluene, 40 psig nitrogen
Protocol: as §1
Back Extraction from a Loaded Solvent of Approximately 70% C8-C10 Trialkylamine in Combination with 30% Toluene
The vessel was then closed, and the headspace purged with nitrogen. The resulting mixture was stirred for 60 minutes at 120° C. under 40 psig (˜275.8 kPa) nitrogen. The stirring was stopped and the two phases allowed to separate at 120° C., then the organic phase was sampled under pressure through the top dip tube into a Hoke cylinder, and aqueous phases was sampled under pressure through the bottom dip tube into another Hoke cylinder.

[6] = Example 11 reactive solvent extraction, 70% Alamine 336/30% 1-octanol, 75° C.; conditions: pH 2 to 3
Protocol: as §1
Solvent Extraction Using Approximately 70% C8-C10 Trialkylamine in Combination with 30% 1-Octanol at 75° C.
as §2, with “70%” for “90%”, “30%” for “10%”, “75°” for “25°”

[7] = initial 3.6 wt % glycolic acid in aqueous phase
[8] = initial 8.5 wt % glycolic acid in aqueous phase
[9] = initial 12.1 wt % glycolic acid in aqueous phase
[10] = initial 16.1 wt % glycolic acid in aqueous phase
[11] = initial 20.6 wt % glycolic acid in aqueous phase
[12] = initial 25.1 wt % glycolic acid in aqueous phase
[13] = initial 29.1 wt % glycolic acid in aqueous phase
[14] = initial 32.8 wt % glycolic acid in aqueous phase

Partition coefficient (wt % org./wt % aq.) [1, 7]: 1.09 | Partition coefficient (wt % org./wt % aq.) [1, 8]: 1.03 | Partition coefficient (wt % org./wt % aq.) [1, 9]: 1.30 | Partition coefficient (wt % org./wt % aq.) [1, 10]: 1.20 | Partition coefficient (wt % org./wt % aq.) [1, 11]: 1.20 | Partition coefficient (wt % org./wt % aq.) [1, 12]: 1.10 | Partition coefficient (wt % org./wt % aq.) [1, 13]: 0.99 | Partition coefficient (wt % org./wt % aq.) [1, 14]: 0.82 | Partition coefficient of glycolic acid (organic wt %/aqueous wt %) [2, 7]: 1.1 | Partition coefficient of glycolic acid (organic wt %/aqueous wt %) [2, 8]: 1.1 | Partition coefficient of glycolic acid (organic wt %/aqueous wt %) [2, 9]: 1.0 | Partition coefficient of glycolic acid (organic wt %/aqueous wt %) [2, 10]: 0.94 | Partition coefficient of glycolic acid (organic wt %/aqueous wt %) [2, 11]: 0.90 | Partition coefficient of glycolic acid (organic wt %/aqueous wt %) [2, 12]: 0.85 | Partition coefficient of glycolic acid (organic wt %/aqueous wt %) [2, 13]: 0.73 | Partition coefficient of glycolic acid (organic wt %/aqueous wt %) [2, 14]: 0.67 | Partition coefficient (wt % org./wt % aq.) ([3]; initial 20.0 wt % glycolic acid in aqueous phase, 16.0 wt % in loaded solvent): 0.59 | Partition coefficient (wt % org./wt % aq.) ([3]; initial 40.0 wt % glycolic acid in aqueous phase, 17.5 wt % in loaded solvent): 0.51 | Partition coefficient (wt % org./wt % aq.) [4, 7]: 1.98 | Partition coefficient (wt % org./wt % aq.) [4, 8]: 1.57 | Partition coefficient (wt % org./wt % aq.) [4, 9]: 1.38 | Partition coefficient (wt % org./wt % aq.) [4, 10]: 1.44 | Partition coefficient (wt % org./wt % aq.) [4, 11]: 1.13 | Partition coefficient (wt % org./wt % aq.) [4, 12]: 1.19 | Partition coefficient (wt % org./wt % aq.) [4, 13]: 1.14 | Partition coefficient (wt % org./wt % aq.) [4, 14]: 0.92 | Partition coefficient (wt % org./wt % aq.) ([5]; initial 20.0 wt % glycolic acid in aqueous phase, 14.2 wt % in loaded solvent): 0.54 | Partition coefficient (wt % org./wt % aq.) ([5]; initial 40.0 wt % glycolic acid in aqueous phase, 15.7 wt % in loaded solvent): 0.54 | Partition coefficient (wt % org./wt % aq.) [6, 7]: 0.69 | Partition coefficient (wt % org./wt % aq.) [6, 8]: 0.74 | Partition coefficient (wt % org./wt % aq.) [6, 9]: 0.64 | Partition coefficient (wt % org./wt % aq.) [6, 10]: 0.68 | Partition coefficient (wt % org./wt % aq.) [6, 11]: 0.62 | Partition coefficient (wt % org./wt % aq.) [6, 12]: 0.61 | Partition coefficient (wt % org./wt % aq.) [6, 13]: 0.50 | Partition coefficient (wt % org./wt % aq.) [6, 14]: 0.52
SMILES: O=C(O)CO [glycolic acid]
